# From patent publication US9981959B2, “Thiazolyl and oxazolyl urea, thiourea, guanidine and cyanoguanidine compounds as TrkA kinase inhibitors” (Array BioPharma Inc., priority 2012, dated 2018)
# Key:
# Test in all cases: KinaseProfiler off-target kinase profiling
# Format in all cases: biochemical
# Settings in all cases: 10 μM, ATP near Km
# CAMK1 = biological target: T1, CAMK1 (Homo sapiens, UniProt Q14012)
# T1 construct: purchased Millipore (KinaseProfiler service)
# Protocol: (§1) A representative compound of the invention (Example 2) was tested for off-target kinase activity at a concentration of 10 μM by Millipore, Inc. in their KinaseProfiler™ service against all the kinases available in their full kinase panel. The compound was run in duplicate at a concentration of ATP near the Km for each individual kinase according to Millipore's specifications. The results are shown in Table B. Data are reported as percent of control (POC) and are the average of the two replicates.
# FAK2 = biological target: T2, FAK2 (Homo sapiens, UniProt Q14289)
# T2 construct: purchased Millipore, Inc. (KinaseProfiler service)
# Protocol: as §1
# GRK5 = biological target: T3, GRK5 (Homo sapiens, UniProt P34947)
# T3 construct: purchased Millipore, Inc. (KinaseProfiler service)
# Protocol: as §1
# LOK = biological target: T4, LOK (Homo sapiens, UniProt O94804)
# T4 construct: purchased Millipore, Inc. (KinaseProfiler service)
# Protocol: as §1
# TAO1 = biological target: T5, TAO1 (Homo sapiens, UniProt Q7L7X3)
# T5 construct: purchased Millipore, Inc. (KinaseProfiler service)
# Protocol: as §1
# Abl-P = biological target: T6, Abl-P (Homo sapiens, UniProt P00519)
# T6 construct: purchased Millipore (KinaseProfiler service)
# Protocol: as §1
# p38beta = biological target: T7, p38beta (Homo sapiens, UniProt Q15759)
# T7 construct: purchased Millipore, Inc. (KinaseProfiler service)
# Protocol: as §1
# PAK6 = biological target: T8, PAK6 (Homo sapiens, UniProt Q9NQU5)
# T8 construct: purchased Millipore, Inc. (KinaseProfiler service)
# Protocol: as §1
# EphB4 = biological target: T9, EphB4 (Homo sapiens, UniProt P54760)
# T9 construct: purchased Millipore, Inc. (KinaseProfiler service)
# Protocol: as §1
# HIPK3 = biological target: T10, HIPK3 (Homo sapiens, UniProt Q9H422)
# T10 construct: purchased Millipore, Inc. (KinaseProfiler service)
# Protocol: as §1
# Fms = biological target: T11, Fms (Homo sapiens, UniProt P07333)
# T11 construct: purchased Millipore, Inc. (KinaseProfiler service)
# Protocol: as §1
# Mer = biological target: T12, Mer (Homo sapiens, UniProt Q12866)
# T12 construct: purchased Millipore, Inc. (KinaseProfiler service)
# Protocol: as §1
# LKB1 = biological target: T13, LKB1 (Homo sapiens, UniProt Q15831)
# T13 construct: purchased Millipore, Inc. (KinaseProfiler service)
# Protocol: as §1
# ULK2 = biological target: T14, ULK2 (Homo sapiens, UniProt Q8IYT8)
# T14 construct: purchased Millipore, Inc. (KinaseProfiler service)
# Protocol: as §1
# NEK2 = biological target: T15, NEK2 (Homo sapiens, UniProt P51955)
# T15 construct: purchased Millipore, Inc. (KinaseProfiler service)
# Protocol: as §1
# Flt4 = biological target: T16, Flt4 (Homo sapiens, UniProt P35916)
# T16 construct: purchased Millipore, Inc. (KinaseProfiler service)
# Protocol: as §1
# PKCtheta = biological target: T17, PKCtheta (Homo sapiens, UniProt Q04759)
# T17 construct: purchased Millipore, Inc. (KinaseProfiler service)
# Protocol: as §1
# CK1gamma3 = biological target: T18, CK1gamma3 (Homo sapiens, UniProt Q9Y6M4)
# T18 construct: purchased Millipore, Inc. (KinaseProfiler service)
# Protocol: as §1
# IR Activated = biological target: T19, IR Activated (Homo sapiens, UniProt P06213)
# T19 construct: purchased Millipore, Inc. (KinaseProfiler service)
# Protocol: as §1
# IRAK4 = biological target: T20, IRAK4 (Homo sapiens, UniProt Q9NWZ3)
# T20 construct: purchased Millipore, Inc. (KinaseProfiler service)
# Protocol: as §1
# TAO2 = biological target: T21, TAO2 (Homo sapiens, UniProt Q9UL54)
# T21 construct: purchased Millipore, Inc. (KinaseProfiler service)
# Protocol: as §1
# AURKA = biological target: T22, AURKA (Homo sapiens, UniProt O14965)
# T22 construct: purchased Millipore (KinaseProfiler service)
# Protocol: as §1
# Txk = biological target: T23, Txk (Homo sapiens, UniProt P42681)
# T23 construct: purchased Millipore, Inc. (KinaseProfiler service)
# Protocol: as §1
# ZAP-70 = biological target: T24, ZAP-70 (Homo sapiens, UniProt P43403)
# T24 construct: purchased Millipore, Inc. (KinaseProfiler service)
# Protocol: as §1
# AKT2 = biological target: T25, AKT2 (Homo sapiens, UniProt P31751)
# T25 construct: purchased Millipore (KinaseProfiler service)
# Protocol: as §1
# DDR2 = biological target: T26, DDR2 (Homo sapiens, UniProt Q16832)
# T26 construct: purchased Millipore, Inc. (KinaseProfiler service)
# Protocol: as §1
# WNK2 = biological target: T27, WNK2 (Homo sapiens, UniProt Q9Y3S1)
# T27 construct: purchased Millipore, Inc. (KinaseProfiler service)
# Protocol: as §1
# CDK7/cyclinH/MAT1 = biological target: T28, CDK7/cyclinH/MAT1 (Homo sapiens, UniProt P50613)
# T28 construct: purchased Millipore, Inc. (KinaseProfiler service)
# Protocol: as §1
# Lck = biological target: T29, Lck (Homo sapiens, UniProt P06239)
# T29 construct: purchased Millipore, Inc. (KinaseProfiler service)
# Protocol: as §1
# CK2 = biological target: T30, CK2 (Homo sapiens, UniProt P68400)
# T30 construct: purchased Millipore, Inc. (KinaseProfiler service)
# Protocol: as §1
# MKK7beta = biological target: T31, MKK7beta (Homo sapiens, UniProt O14733)
# T31 construct: purchased Millipore, Inc. (KinaseProfiler service)
# Protocol: as §1
# ErbB4 = biological target: T32, ErbB4 (Homo sapiens, UniProt Q15303)
# T32 construct: purchased Millipore, Inc. (KinaseProfiler service)
# Protocol: as §1
# PTK5 = biological target: T33, PTK5 (Homo sapiens, UniProt P42685)
# T33 construct: purchased Millipore, Inc. (KinaseProfiler service)
# Protocol: as §1
# PDGFRbeta = biological target: T34, PDGFRbeta (Homo sapiens, UniProt P09619)
# T34 construct: purchased Millipore, Inc. (KinaseProfiler service)
# Protocol: as §1
# Pim-1 = biological target: T35, Pim-1 (Homo sapiens, UniProt P11309)
# T35 construct: purchased Millipore, Inc. (KinaseProfiler service)
# Protocol: as §1
# GRK6 = biological target: T36, GRK6 (Homo sapiens, UniProt P43250)
# T36 construct: purchased Millipore, Inc. (KinaseProfiler service)
# Protocol: as §1
# PTK6 = biological target: T37, PTK6 (Homo sapiens, UniProt Q13882)
# T37 construct: purchased Millipore, Inc. (KinaseProfiler service)
# Protocol: as §1
# PKCiota = biological target: T38, PKCiota (Homo sapiens, UniProt P41743)
# T38 construct: purchased Millipore, Inc. (KinaseProfiler service)
# Protocol: as §1
# SGK2 = biological target: T39, SGK2 (Homo sapiens, UniProt Q9HBY8)
# T39 construct: purchased Millipore, Inc. (KinaseProfiler service)
# Protocol: as §1
# SRPK2 = biological target: T40, SRPK2 (Homo sapiens, UniProt P78362)
# T40 construct: purchased Millipore, Inc. (KinaseProfiler service)
# Protocol: as §1
# LIMK1 = biological target: T41, LIMK1 (Homo sapiens, UniProt P53667)
# T41 construct: purchased Millipore, Inc. (KinaseProfiler service)
# Protocol: as §1
# T33 sequence (P42685 whole entry): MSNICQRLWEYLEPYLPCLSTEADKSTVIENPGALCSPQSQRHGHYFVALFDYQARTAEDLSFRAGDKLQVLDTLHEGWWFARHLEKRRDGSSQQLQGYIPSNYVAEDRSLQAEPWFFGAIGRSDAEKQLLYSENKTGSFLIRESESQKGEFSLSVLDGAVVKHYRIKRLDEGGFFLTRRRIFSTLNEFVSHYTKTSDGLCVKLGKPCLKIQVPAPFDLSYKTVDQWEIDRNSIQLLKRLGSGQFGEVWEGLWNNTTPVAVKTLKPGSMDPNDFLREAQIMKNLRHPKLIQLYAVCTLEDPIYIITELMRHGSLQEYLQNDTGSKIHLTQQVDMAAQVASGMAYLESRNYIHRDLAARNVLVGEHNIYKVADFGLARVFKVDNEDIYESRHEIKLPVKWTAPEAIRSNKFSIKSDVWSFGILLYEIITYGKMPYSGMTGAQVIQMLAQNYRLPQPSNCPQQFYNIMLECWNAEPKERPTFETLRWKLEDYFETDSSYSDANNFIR
# T10 sequence (Q9H422 whole entry): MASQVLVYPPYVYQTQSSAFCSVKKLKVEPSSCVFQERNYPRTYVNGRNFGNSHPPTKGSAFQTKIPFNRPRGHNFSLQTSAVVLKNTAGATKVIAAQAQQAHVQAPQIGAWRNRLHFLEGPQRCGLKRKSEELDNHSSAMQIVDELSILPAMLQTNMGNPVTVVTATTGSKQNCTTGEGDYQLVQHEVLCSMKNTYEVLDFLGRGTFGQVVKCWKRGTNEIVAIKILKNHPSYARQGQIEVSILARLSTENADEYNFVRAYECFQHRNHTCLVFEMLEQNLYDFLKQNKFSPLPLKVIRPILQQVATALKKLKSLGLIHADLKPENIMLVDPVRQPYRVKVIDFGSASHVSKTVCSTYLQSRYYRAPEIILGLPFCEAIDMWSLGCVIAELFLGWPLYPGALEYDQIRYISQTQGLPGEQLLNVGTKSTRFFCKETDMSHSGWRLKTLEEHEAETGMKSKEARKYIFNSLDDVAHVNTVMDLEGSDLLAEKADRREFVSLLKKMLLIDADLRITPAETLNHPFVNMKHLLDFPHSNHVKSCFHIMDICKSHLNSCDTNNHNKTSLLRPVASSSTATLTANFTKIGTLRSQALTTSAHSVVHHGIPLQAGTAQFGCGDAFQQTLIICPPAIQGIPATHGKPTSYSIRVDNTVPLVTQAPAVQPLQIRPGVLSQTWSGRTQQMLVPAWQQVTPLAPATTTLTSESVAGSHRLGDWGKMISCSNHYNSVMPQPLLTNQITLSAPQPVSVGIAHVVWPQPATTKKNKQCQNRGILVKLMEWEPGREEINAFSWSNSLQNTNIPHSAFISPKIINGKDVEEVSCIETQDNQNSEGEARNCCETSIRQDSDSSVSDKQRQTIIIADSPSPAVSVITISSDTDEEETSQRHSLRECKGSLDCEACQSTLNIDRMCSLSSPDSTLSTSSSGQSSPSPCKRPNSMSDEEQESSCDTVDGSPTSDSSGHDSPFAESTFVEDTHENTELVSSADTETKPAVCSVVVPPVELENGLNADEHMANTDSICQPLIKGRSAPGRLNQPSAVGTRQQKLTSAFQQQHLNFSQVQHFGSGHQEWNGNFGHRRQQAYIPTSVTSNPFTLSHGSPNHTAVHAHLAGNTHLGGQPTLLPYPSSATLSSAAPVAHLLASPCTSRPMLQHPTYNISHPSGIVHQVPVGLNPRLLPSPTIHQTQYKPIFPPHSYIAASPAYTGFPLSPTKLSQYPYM
# T4 sequence (O94804 whole entry): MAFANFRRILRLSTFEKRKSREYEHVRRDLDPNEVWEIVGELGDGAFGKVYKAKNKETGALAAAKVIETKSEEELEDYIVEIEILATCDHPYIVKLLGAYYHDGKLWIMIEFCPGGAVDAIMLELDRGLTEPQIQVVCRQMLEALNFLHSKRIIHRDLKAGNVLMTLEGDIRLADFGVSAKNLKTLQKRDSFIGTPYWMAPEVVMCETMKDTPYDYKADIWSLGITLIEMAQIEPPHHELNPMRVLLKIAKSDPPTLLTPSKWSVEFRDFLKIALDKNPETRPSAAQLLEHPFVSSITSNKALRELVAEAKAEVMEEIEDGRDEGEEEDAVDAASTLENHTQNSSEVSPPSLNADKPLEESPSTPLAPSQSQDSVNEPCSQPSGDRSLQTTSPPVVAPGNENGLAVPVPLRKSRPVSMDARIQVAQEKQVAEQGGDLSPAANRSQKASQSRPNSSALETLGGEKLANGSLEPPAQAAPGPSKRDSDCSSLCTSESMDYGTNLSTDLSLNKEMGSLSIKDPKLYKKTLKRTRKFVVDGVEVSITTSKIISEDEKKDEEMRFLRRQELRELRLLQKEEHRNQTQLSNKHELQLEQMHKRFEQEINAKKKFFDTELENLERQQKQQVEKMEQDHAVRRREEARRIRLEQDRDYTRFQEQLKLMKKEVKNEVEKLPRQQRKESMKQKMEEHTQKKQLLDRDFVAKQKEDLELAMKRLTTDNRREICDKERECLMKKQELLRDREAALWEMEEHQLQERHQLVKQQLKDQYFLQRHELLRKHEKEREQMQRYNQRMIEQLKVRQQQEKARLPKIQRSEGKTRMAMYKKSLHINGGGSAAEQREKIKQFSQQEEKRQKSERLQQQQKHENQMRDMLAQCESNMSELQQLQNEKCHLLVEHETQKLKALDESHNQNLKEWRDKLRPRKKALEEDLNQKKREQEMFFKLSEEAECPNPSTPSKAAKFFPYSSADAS
# T22 sequence (O14965 whole entry): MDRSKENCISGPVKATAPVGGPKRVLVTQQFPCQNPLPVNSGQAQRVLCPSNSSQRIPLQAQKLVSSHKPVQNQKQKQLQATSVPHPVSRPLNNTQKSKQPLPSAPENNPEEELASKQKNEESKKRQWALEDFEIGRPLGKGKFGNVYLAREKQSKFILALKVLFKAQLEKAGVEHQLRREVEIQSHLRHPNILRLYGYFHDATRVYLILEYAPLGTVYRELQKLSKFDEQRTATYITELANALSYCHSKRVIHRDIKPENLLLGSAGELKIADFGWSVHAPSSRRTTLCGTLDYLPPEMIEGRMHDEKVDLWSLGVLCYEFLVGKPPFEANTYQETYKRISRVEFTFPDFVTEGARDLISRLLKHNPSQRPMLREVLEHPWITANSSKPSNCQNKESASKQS
# T11 sequence (P07333 20-972): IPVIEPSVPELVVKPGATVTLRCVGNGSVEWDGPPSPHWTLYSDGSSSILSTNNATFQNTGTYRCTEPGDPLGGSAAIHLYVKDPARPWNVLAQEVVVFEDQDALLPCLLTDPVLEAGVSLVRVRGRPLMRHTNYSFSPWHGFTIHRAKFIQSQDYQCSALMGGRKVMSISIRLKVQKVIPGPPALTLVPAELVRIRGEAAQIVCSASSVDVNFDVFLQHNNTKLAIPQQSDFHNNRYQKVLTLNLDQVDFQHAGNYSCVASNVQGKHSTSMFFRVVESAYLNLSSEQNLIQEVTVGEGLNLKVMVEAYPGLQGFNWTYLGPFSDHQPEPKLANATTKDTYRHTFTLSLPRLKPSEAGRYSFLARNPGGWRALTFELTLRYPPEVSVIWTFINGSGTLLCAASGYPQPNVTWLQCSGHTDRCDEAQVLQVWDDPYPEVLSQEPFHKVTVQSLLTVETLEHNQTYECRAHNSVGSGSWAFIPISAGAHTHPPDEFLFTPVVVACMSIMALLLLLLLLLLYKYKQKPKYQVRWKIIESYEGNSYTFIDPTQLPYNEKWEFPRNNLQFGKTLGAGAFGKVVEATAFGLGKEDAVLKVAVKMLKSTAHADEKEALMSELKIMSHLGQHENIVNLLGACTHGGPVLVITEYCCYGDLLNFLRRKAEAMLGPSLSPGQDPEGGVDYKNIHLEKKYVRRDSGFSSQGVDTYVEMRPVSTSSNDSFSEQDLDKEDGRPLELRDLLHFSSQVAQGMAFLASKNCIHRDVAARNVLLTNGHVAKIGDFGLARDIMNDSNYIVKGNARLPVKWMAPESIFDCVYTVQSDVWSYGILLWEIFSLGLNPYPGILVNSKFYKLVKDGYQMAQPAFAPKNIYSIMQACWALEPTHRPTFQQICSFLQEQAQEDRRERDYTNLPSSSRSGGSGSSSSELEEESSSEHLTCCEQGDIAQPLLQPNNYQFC
# T31 sequence (O14733 whole entry): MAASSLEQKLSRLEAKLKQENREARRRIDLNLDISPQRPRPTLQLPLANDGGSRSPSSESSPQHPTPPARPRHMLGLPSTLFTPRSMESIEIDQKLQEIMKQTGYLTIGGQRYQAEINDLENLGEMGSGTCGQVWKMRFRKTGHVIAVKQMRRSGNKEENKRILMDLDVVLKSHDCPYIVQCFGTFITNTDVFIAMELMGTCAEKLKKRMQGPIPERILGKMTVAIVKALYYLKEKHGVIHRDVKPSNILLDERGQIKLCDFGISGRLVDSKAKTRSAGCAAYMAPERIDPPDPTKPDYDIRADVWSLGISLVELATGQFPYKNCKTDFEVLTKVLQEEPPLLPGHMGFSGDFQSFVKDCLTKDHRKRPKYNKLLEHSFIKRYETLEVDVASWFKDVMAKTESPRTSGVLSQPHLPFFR
# T3 sequence (P34947 whole entry): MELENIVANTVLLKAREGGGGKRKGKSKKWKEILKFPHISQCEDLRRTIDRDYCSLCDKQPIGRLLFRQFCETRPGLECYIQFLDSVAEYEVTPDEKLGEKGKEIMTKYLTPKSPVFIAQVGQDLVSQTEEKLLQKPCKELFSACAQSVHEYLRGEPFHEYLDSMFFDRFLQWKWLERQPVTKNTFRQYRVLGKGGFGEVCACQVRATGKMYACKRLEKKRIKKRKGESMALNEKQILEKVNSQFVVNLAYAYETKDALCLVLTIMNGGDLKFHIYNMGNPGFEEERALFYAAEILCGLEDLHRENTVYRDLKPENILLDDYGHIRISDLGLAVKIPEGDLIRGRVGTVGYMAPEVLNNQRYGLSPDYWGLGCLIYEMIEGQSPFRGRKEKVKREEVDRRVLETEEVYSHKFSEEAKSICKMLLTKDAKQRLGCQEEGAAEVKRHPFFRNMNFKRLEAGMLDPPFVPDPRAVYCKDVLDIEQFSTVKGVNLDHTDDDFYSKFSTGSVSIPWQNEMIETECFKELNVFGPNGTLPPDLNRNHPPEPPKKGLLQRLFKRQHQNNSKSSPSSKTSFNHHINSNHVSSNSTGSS
smiles,measurement,setting,value
"Cc1c(-c2cnn(C)c2)nn(-c2ccccc2)c1NC(=O)Nc1sc(C(F)(F)F)nc1-c1ccccc1 [Example 2, 1-(1′,4-dimethyl-1-phenyl-1H,1′H-[3,4′-bipyrazol]-5-yl)-3-(4-phenyl-2-(trifluoromethyl)thiazol-5-yl)urea]",Avg POC,CAMK1,95.5 POC
same,Avg POC,FAK2,107 POC
same,Avg POC,GRK5,82.5 POC
same,Avg POC,LOK,110.5 POC
same,Avg POC,TAO1,103.5 POC
same,Avg POC,Abl-P,148 POC
same,Avg POC,p38beta,106.5 POC
same,Avg POC,PAK6,135 POC
same,Avg POC,EphB4,130 POC
same,Avg POC,HIPK3,105.5 POC
same,Avg POC,Fms,89.5 POC
same,Avg POC,Mer,105.5 POC
same,Avg POC,LKB1,96.5 POC
same,Avg POC,ULK2,91 POC
same,Avg POC,NEK2,122.5 POC
same,Avg POC,Flt4,107 POC
same,Avg POC,PKCtheta,130 POC
same,Avg POC,CK1gamma3,114 POC
same,Avg POC,IR Activated,113.5 POC
same,Avg POC,IRAK4,112 POC
same,Avg POC,TAO2,123.5 POC
same,Avg POC,AURKA,116 POC
same,Avg POC,Txk,163 POC
same,Avg POC,ZAP-70,133 POC
same,Avg POC,AKT2,171.5 POC
same,Avg POC,DDR2,98 POC
same,Avg POC,WNK2,115 POC
same,Avg POC,CDK7/cyclinH/MAT1,113 POC
same,Avg POC,Lck,103 POC
same,Avg POC,CK2,95 POC
same,Avg POC,MKK7beta,143.5 POC
same,Avg POC,ErbB4,125 POC
same,Avg POC,PTK5,104.5 POC
same,Avg POC,PDGFRbeta,162 POC
same,Avg POC,Pim-1,109.5 POC
same,Avg POC,GRK6,98.5 POC
same,Avg POC,PTK6,113.5 POC
same,Avg POC,PKCiota,67 POC
same,Avg POC,SGK2,144.5 POC
same,Avg POC,SRPK2,113.5 POC
same,Avg POC,LIMK1,102 POC
